Key:
colon bacteria = assay: Microorganism growth inhibition: number of colon bacteria on Chromocult medium; type: cell-based; conditions: time 24 (hours); stored at 25° C.; ND = Not observed
Procedure: (§1) A chicken in instant ginseng chicken soup (product of Harim) was boiled, washed twice with cold water, and then dehydrated for 1 minute. 10 g of boiled instant ginseng chicken soup was dipped in 100 ml of solution for 30 seconds, dehydrated for 30 seconds on a strainer, held in a petri dish, and then stored at 25° C. For counting the total number of bacteria, the number of colonies resulting from culturing for 48 hours at 37° C. using a plate count agar was counted and indicated with colony forming unit (CFU)/ml. For counting the number of colon bacteria, the experiment was conducted in the same way for counting the total number of bacteria using a Chromocult (merck) medium. In this case, distilled water as a control group and (F)rhodinic acid were used.

total number of bacteria = assay: Microorganism growth inhibition: total number of bacteria on plate count agar; type: cell-based; conditions: boiled soup chicken dipped 30 seconds in solution, stored at 25° C.
Procedure: as §1

In the case of `CC(C)=CCCC(C)CC(=O)O` (centres unmarked) [F (rhodinic acid), rhodinic acid], the “Number of colon bacteria” value (colon bacteria) is reported as “no colon bacteria were detected”, the “Total number of bacteria” value (total number of bacteria; time 0) is reported as 6.7 × 10^2 CFU/ml and the “Total number of bacteria” value (total number of bacteria; time 18) is reported as 10 × 10^5 CFU/ml. The “Total number of bacteria” value (total number of bacteria; time 24 (hours)) was 8.9 × 10^6 CFU/ml and the “Total number of bacteria” value (total number of bacteria; time 24 (hours), listed as (F)rhodinic acid) was “up to 10^6 CFU/ml”.

From patent US20180325151A1, “METHOD OF PRODUCING INSTANT GINSENG CHICKEN SOUP PRODUCT” (HARIM CORPORATION, priority 2017, published 2018)
